A short description of data set [1]: Antiviral activity against Influenza A virus A/PR/8/34 (H1N1) infected in MDCK cells assessed as reduction in plaque formation after 2 days by plaque reduction assay. Particulars: 48 h. Format: functional, cell-based, Influenza A virus (A/Puerto Rico/8/1934(H1N1)). In general terms: In a plaque reduction assay, fewer plaques than in the control indicate reduced infectivity or spread.

The nature of data set [2]: Cytotoxicity against MDCK cells by MTT assay. Particulars: dog. Type of data set: toxicity, cell-based, Canis lupus familiaris.
A short description of data set [3]: (§1) Inhibition of Influenza A virus A/PR/8/34(H1N1) 6His-tagged PA (239 to 716 residues)/GST-tagged PB1 (1 to 15 residues) fused with HIV-Tat interaction by ELISA. Also noted: species or system Influenza A virus (A/Puerto Rico/8/1934(H1N1)).
The test system of the next data set is Influenza A virus. Kind of data set: Antiviral activity at Influenza A virus infected in MDCK cells by plaque reduction assay. Format: functional, cell-based.
The nature of data set [4]: Inhibition of Influenza A virus A/PR/8/34(H1N1) RNA-dependent-RNA polymerase transfected in MDCK cells assessed as reduction in viral growth after 24 hrs by minireplicon assay. Format: cell-based, Influenza A virus (A/Puerto Rico/8/1934(H1N1)).
Data set [5] is described as follows: Inhibition of Influenza A virus A/WSN/1933(H1N1) PA/PB1 interaction transfected in HEK293T cells assessed as inhibition of viral growth measured after 24 hrs by minireplicon assay. Type of data set: cell-based. The following applies: hek-293t. In general terms: A replicon is a self-replicating genome or part of one, used to study replication in cells.
Data set [6] in a line: Inhibition of Influenza B virus B/Lee/40 RNA-dependent-RNA polymerase transfected in MDCK cells assessed as reduction in viral growth after 24 hrs by minireplicon assay. Format: cell-based, Influenza B virus (B/Lee/1940).
Data set [7] in a line: Cytotoxicity against MDCK cells measured after 24 to 120 hrs by MTT assay. Type of data set: toxicity, cell-based, Canis lupus familiaris. Particulars: dog. (Tetrazolium assays rely on reduction of a dye to a coloured formazan, in cell work by metabolically active cells.)
Data set [8] can be described thus: Inhibition of Influenza A virus A/PR/8/34(H1N1) 6His-tagged PA (239 to 716 residues)/GST-tagged PB1 (1 to 15 residues) interaction. Further details: species or system Influenza A virus (A/Puerto Rico/8/1934(H1N1)).
For data set [9], the target named is Polymerase acidic protein (Influenza A virus (A/Puerto Rico/8/1934(H1N1)), UniProt P03433). In words: Binding affinity to PA cavity of recombinant Influenza A virus A/PR/8/34(H1N1) PA (239 to 716 residues) measured after 2 mins by SPR analysis.
Data set [10] has as its target Polymerase acidic protein /RNA-directed RNA polymerase catalytic subunit (Influenza A virus (strain A/Wilson-Smith/1933 H1N1), UniProt P03430+P15659). In words: Inhibition of Influenza A virus A/WSN/1933(H1N1) HA-tagged PA/PB1 interaction in HEK293T cells assessed as inhibition of viral growth by competitive ELISA. Type of data set: cell-based, HEK-293T.
Data set [11] can be described thus: Inhibition of Influenza B virus HA-tagged PA/PB1 interaction in HEK293T cells assessed as inhibition of viral growth by competitive ELISA. Type of data set: cell-based. Particulars: hek-293t.
The test system of a further data set is HEK-293T. In words: (§2) Inhibition of Influenza A virus A/PR/8/34 RNA-dependent-RNA polymerase transfected in HEK293T cells assessed as reduction in viral growth after 24 hrs by minireplicon assay. Format: cell-based. The following applies: Influenza A virus (A/Puerto Rico/8/1934(H1N1)).
A short description of data set [12]: as §2. Format: cell-based, Influenza A virus (A/Puerto Rico/8/1934(H1N1)). Particulars: hek-293t.
The subject of data set [13] is Influenza A virus (A/Puerto Rico/8/1934(H1N1)). The data set is described as §1.
The test system of another data set is Influenza B virus. In words: Antiviral activity at Influenza B virus infected in MDCK cells by plaque reduction assay. Type of data set: functional, cell-based.

A value given as a limit tells only on which side of the number the result lay.

As usually defined, the EC50 is the concentration giving half of the maximal effect. What is called CC50 is the concentration giving 50% cytotoxicity. Lower therefore signals harm at low concentration. In general, IC50 refers to the concentration at which inhibition is half-maximal. Usually Kd stands for the concentration at which binding is half-saturated.

Consider `O=[N+]([O-])c1ccc(Sc2cccc(-n3ccnc3)c2)c2nonc12`, for which the EC50 in data set [1] stood at 10 µM. In addition, the midpoint of cytotoxicity in data set [2], the CC50, lay at 20 µM. This molecule also gave an IC50 in data set [3] of 15 µM.
Turning to `Nc1ccc(O)c2c1C(=O)c1c(N)ccc(O)c1C2=O`, the EC50 stood at 13 µM in the data set with Influenza A virus, 14 µM in data set [4] and 8.3 µM in data set [6]. Besides, the IC50 is 16 µM in data set [5] and 20 µM in [8]. For the same molecule, the CC50 in data set [7] was > 250 µM.
Consider `CC(=O)O[C@H]1CC[C@H]2[C@@H]3CCC4=CC(=O)CCC4=C3C=C[C@]12C` [TRENBOLONE ACETATE], for which the EC50 in [1] turned out to be 51 µM. Moreover, the Kd in [9] was 90.7 µM.
Take `CSCC[C@H](N)C(=O)N[C@@H](CC(=O)O)C(=O)N[C@@H](Cc1ccc(O)cc1)C(=O)N[C@@H](CC(N)=O)C(=O)N1CCC[C@H]1C(=O)N[C@@H](Cc1ccccc1)C(=O)N[C@@H](CC(C)C)C(=O)N[C@@H](CC(C)C)C(=O)N[C@@H](Cc1ccccc1)C(=O)N[C@@H](CC(C)C)C(=O)N[C@@H](CCCCN)C(=O)N[C@H](C(=O)N1CCC[C@H]1C(=O)N[C@@H](C)C(=O)N[C@@H](CCC(N)=O)C(=O)O)C(C)C`: in [10], the IC50 was found to be 0.0063 µM.
In the case of `CCc1oc2ccccc2c1C(=O)c1cc(Br)c(O)c(Br)c1` [BENZBROMARONE], the EC50 in data set [1] is 39 µM. Also, the Kd in data set [9] was 48.2 µM.
For H-MNINPYFLFIDVPIQ-OH, the IC50 was > 3 µM in data set [10] and 0.045 µM in data set [11].
Turning to `NC(=O)c1c(NC(=O)c2cnn3c(C(F)F)cc(-c4ccccc4)nc23)sc2c1CCC2`, the inhibition entry (with HEK-293T; in data set [13]) was “Dose-dependent effect” throughout. Further, the values for the IC50 in data set [12] and in data set [3] were 31 µM and 25.4 µM, respectively. Besides, the EC50 in data set [1] was 75 µM. Also, in data set [7], the CC50 is > 1000 µM.
Turning to `CSCC[C@H](N)C(=O)N[C@@H](CC(=O)O)C(=O)N[C@H](C(=O)N[C@@H](CC(N)=O)C(=O)N1CCC[C@H]1C(=O)N[C@@H](Cc1ccccc1)C(=O)N[C@@H](CC(C)C)C(=O)N[C@@H](CC(C)C)C(=O)N[C@@H](Cc1ccccc1)C(=O)N[C@@H](CC(C)C)C(=O)N[C@@H](CCCCN)C(=O)N[C@H](C(=O)N1CCC[C@H]1C(=O)N[C@@H](C)C(=O)N[C@@H](Cc1ccccc1)C(=O)O)C(C)C)C(C)C`, the IC50 in data set [10] is 0.0139 µM.
For `COc1ccc(CC2(CCC(=O)NC(C)Cn3ccc4ccccc43)CCC(=O)N2)cc1` (centres undefined), the inhibition entry (with HEK-293T; in data set [13]) was “Dose-dependent effect” each time. In addition, the IC50 in data set [12] was > 100 µM; in data set [3], 200 µM. In addition, the EC50 in data set [1] is > 100 µM. For the same molecule, the CC50 in [7] was > 250 µM.
In the case of H-MDVNPYLLFLKVPAQ-OH, the IC50 was found to be 0.0216 µM in [10] and 0.107 µM in data set [11].
Take `O=[N+]([O-])c1ccc(Oc2ccc(-n3cc(CO)nn3)cc2)c2nonc12`: the EC50 in data set [1] is 1 µM. This molecule also returned a CC50 in data set [2] of 40 µM. In [3], this molecule registered an IC50 of 35 µM.
As to `COC(=O)C1=C(N)N(c2cccc(Cl)c2C)C2=C(C(=O)CCC2)C1c1ccc2c(c1)OCO2` (centres undefined), the inhibition result (with HEK-293T; in data set [13]) was “Dose-dependent effect” each time. Moreover, the IC50 in [12] turned out to be 18 µM; in [3] it was 30.4 µM. For the same molecule, the EC50 with Influenza A virus was 12 µM; in [1], 18.6 µM; with Influenza B virus, 12 µM. In data set [7], the CC50 is > 1000 µM.
As to `CSCC[C@H](N)C(=O)N[C@@H](CC(=O)O)C(=O)N[C@H](C(=O)N[C@@H](CC(N)=O)C(=O)N1CCC[C@H]1C(=O)N[C@H](C(=O)N[C@@H](CC(C)C)C(=O)N[C@@H](CC(C)C)C(=O)N[C@@H](Cc1ccccc1)C(=O)N[C@@H](CC(C)C)C(=O)N[C@@H](CCCCN)C(=O)N[C@H](C(=O)N1CCC[C@H]1C(=O)N[C@@H](C)C(=O)N[C@@H](CCC(N)=O)C(=O)O)C(C)C)[C@@H](C)O)C(C)C`, the IC50 in data set [11] was > 3 µM.
`CC(C)C[C@H](NC(=O)[C@H](Cc1ccccc1)NC(=O)[C@H](CC(C)C)NC(=O)[C@H](CC(C)C)NC(=O)[C@@H](NC(=O)[C@@H]1CCCN1)[C@@H](C)O)C(=O)N[C@@H](CCCCN)C(=O)O`: the IC50 in data set [10] was > 10 µM.
In the case of `N#CC(c1ccc(Cl)cc1)c1c(Cl)cc(-n2ncc(=O)[nH]c2=O)cc1Cl` (centres undefined) [DICLAZURIL], the EC50 in data set [1] worked out at 31 µM. Further, the Kd in [9] is 211 µM.
For `CC[C@H](C)[C@H](NC(=O)[C@@H]1CCCN1C(=O)[C@@H](NC(=O)[C@H](CCCCN)NC(=O)[C@H](CC(C)C)NC(=O)[C@H](Cc1ccccc1)NC(=O)[C@H](CC(C)C)NC(=O)[C@H](CC(C)C)NC(=O)[C@H](Cc1ccccc1)NC(=O)[C@@H]1CCCN1C(=O)[C@H](CC(N)=O)NC(=O)[C@@H](NC(=O)[C@H](CC(=O)O)NC(=O)[C@@H](N)CCSC)C(C)C)C(C)C)C(=O)N[C@@H](CCC(N)=O)C(=O)O`, the IC50 in [10] was 0.0217 µM.
Same read-out and setting: with `CSCC[C@H](N)C(=O)N[C@@H](CC(=O)O)C(=O)N[C@H](C(=O)N[C@@H](CC(N)=O)C(=O)N1CCC[C@H]1C(=O)N[C@@H](Cc1ccccc1)C(=O)N[C@@H](CC(C)C)C(=O)N[C@@H](CC(C)C)C(=O)N[C@@H](Cc1ccccc1)C(=O)N[C@@H](CC(C)C)C(=O)N[C@@H](CCCCN)C(=O)N[C@H](C(=O)N[C@@H](CCCCN)C(=O)N[C@@H](C)C(=O)N[C@@H](CCC(N)=O)C(=O)O)C(C)C)C(C)C` the figure was 0.0166 µM.
On to `COc1ccc(C(=O)Nc2nc3n(n2)C(c2ccccc2)C=C(C)N3)cc1` (centres undefined), for which the inhibition entry (in the data set with HEK-293T; in data set [13]) was “Dose-dependent effect” in each case. Besides, the results for the IC50 in [12] and in [3] were > 100 µM and 171 µM, respectively. The half-maximal effective concentration (EC50) in data set [1] was > 100 µM. Moreover, the CC50 in data set [7] is > 250 µM.

Values taken from ChEMBL document CHEMBL3853272, “Polymerase Acidic Protein-Basic Protein 1 (PA-PB1) Protein-Protein Interaction as a Target for Next-Generation Anti-influenza Therapeutics” (J Med Chem, 2016).
